These results are taken from patent publication US8871793B2, “Metaxalone cocrystals” (Nuformix Limited, priority 2009, dated 2014).

Data set [1] is described as follows: Pharmacokinetic study, oral capsule administration under fasted conditions in beagle dogs. It counts as in vivo. As to conditions: mean, male beagle dogs, equivalent metaxalone dosage of 21 mg/kg; for Tmax / AUC: plasma; for Cmax: plasma metaxalone by LC-MS/MS; for AUC: linear trapezoidal rule. The method, then:
The study was designed to compare the pharmacokinetic profiles of the 1:0.5 metaxalone fumaric acid (prepared as described in Example 2.7) and 1:0.5 metaxalone succinic acid cocrystals (prepared as described in Example 4.7) with that of the crystalline metaxalone following oral administration under fasted conditions at 21 mg/kg dose level in beagle dogs. A crossover study was carried out using 5 male beagle dogs with a washout period of 5 days between each treatment. Prior to dosing, the dogs were fasted overnight, weighed and then this weight was used to load capsules with each test compound at an equivalent metaxalone dosage of 21 mg/kg. The capsules were orally administered to the dogs followed by about 10 mL of water. Food was provided 4 hours post-dose to all animals.
Blood samples were collected at pre-dose, 10, 20 and 30 minutes, and 1, 2, 3, 4, 6, 8, 12 and 24 hour post-dose (12 time points) following oral dose administration. Approximately 0.8 ml of whole blood was withdrawn from the cephalic vein and placed in labelled tubes containing K2 EDTA as anticoagulant ([…] of 200 mM K2 EDTA solution per mL of blood). Plasma was separated by centrifuging the whole blood at about 2500 g for 10 minutes at 4° C. Separated plasma was stored below −70° C. until analysis.
A fit for purpose LC-MS/MS method was used for the determination of the metaxalone concentrations in the plasma samples. Pharmacokinetic parameters from individual samples were calculated using the non-compartmental analysis tool of the WinNonlin® software (version 5.2). The area under the plasma concentration curve (AUC) was calculated using the linear trapezoidal rule. Peak plasma concentration (Cmax) and the time taken to reach the peak plasma concentration (Tmax) were the observed values.

The conditions of data set [2]: presence of food at the time of drug administration compared to fasted conditions; cited from earlier work.
The conditions of data set [3]: cited from earlier work.

Like-named read-outs stand apart in the source and are kept apart here.

As usually defined, the Tmax is the time at which the peak concentration occurs. One may read the Cmax as the highest concentration seen after dosing. By AUC is commonly meant concentration integrated over time. As for `Cc1cc(C)cc(OCC2CNC(=O)O2)c1.Cc1cc(C)cc(OCC2CNC(=O)O2)c1.O=C(O)CCC(=O)O` (stereo not shown) [1:0.5 Metaxalone Succinic Acid Cocrystal], in data set [1], the Tmax amounted to 1.8 h, the Cmax is on record as 2629.8 ng/mL and the AUC is 4134.85 ng·h/mL.
In the case of `Cc1cc(C)cc(OCC2CNC(=O)O2)c1` (stereo not shown) [Metaxalone, 5-[(3,5-dimethylphenoxy)methyl]-2-oxazolidinone], in data set [2], the “Increase of AUC(inf) by food” value is on record as 115.4%, the “Increase of AUC(last) by food” value was 123.5% and the “Increase of C(max) by food” value is listed as 177.5%. Moreover, the Cmax in data set [1] (dog, read-out: Cmax) was 1910 ng/mL. In addition, the AUC in data set [1] (dog, read-out: AUC) turned out to be 2380 ng·h/mL. In addition, the Tmax in data set [1] (dog, read-out: Tmax) was determined as 0.9 h. For the same compound, in data set [3] (96% ethanol), the “Solubility in 96% ethanol” value is “soluble”. The Solubility in chloroform result in data set [3] (chloroform) is “freely soluble”. Besides, the Solubility in methanol entry in data set [3] (methanol) is recorded as “soluble”. The Solubility in water entry in data set [3] (water) is reported as “practically insoluble”.
For `Cc1cc(C)cc(OCC2CNC(=O)O2)c1.Cc1cc(C)cc(OCC2CNC(=O)O2)c1.O=C(O)C=CC(=O)O` (stereo not shown) [1:0.5 Metaxalone Fumaric Acid Cocrystal], in data set [1], the Tmax turned out to be 1.1 h, the Cmax was found to be 3635.39 ng/mL and the AUC came out at 5202.44 ng·h/mL.
